Test results published in US20110136145A1, “METHODS FOR PROMOTING FUSION AND REPROGRAMMING OF SOMATIC CELLS” (THE JOHNS HOPKINS UNIVERSITY, priority 2008, published 2011).
“Also recorded” adds a separate entry of the source.

System: ESC-induced Oct4-GFP re-activation in NSCs
Test: CLEAR analysis of ESC fusion-induced reprogramming (PEG-induced fusion of Z-Red ESCs and CIPOE NSCs, flow cytometry)
Text: CLEAR strategy uses engineered ESCs and NSCs for monitoring fusion-induced DsRed expression and reprogramming-induced GFP expression (FIG. 1A). Z-Red ESCs were derived from a clonal ESC line containing one copy of a transgene (CAG-loxP-LacZ::neomycin-polyA-loxP-DsRed.T3) as a Cre recombination excision reporter.
Adult NSCs were isolated from Oct4-GFP (GOF 18-A PE-EGFP) transgenic mice and transduced by retroviruses to stably co-express Cre and the puromycin resistance gene through a bicistronic cassette (termed CIPOE NSCs hereafter). Somatic cells with Oct4-GFP transgene integration have been used previously to investigate reprogramming, in which the regulatory elements of Oct4 direct reliable GFP reactivation from somatic genomes in reprogrammed ESC-like hybrid cells (also see FIG. 3). Multiple CIPOE NSC lines from Oct4-GFP transgenic mice were established, characterized and used for subsequent cell fusion experiments.
To quantitatively analyze the reprogramming-induced Oct4-GFP re-activation, dual-color flow cytometry was used to display and measure the cell population that underwent PEG-induced cell fusion. Viable cells were identified by their typical FSC (Forward Scatter) and SSC (Side Scatter) properties. To ensure appropriate gating for […] and DsRed+ events and to compensate the spectrum crossover of GFP and DsRed signals, the system was first calibrated using multiple control cells, including Z-Red ESCs, CIPOE NSCs, mixed Z-Red ESCs and CIPOE NSCs without PEG. Z-Red ESCs transfected with a constitutive Cre expression plasmid, and CIPOE NSCs transfected with a Cre excision reporter plasmid (FIG. 4A).
ESC fusion-induced Oct4 re-activation from NSCs was quantitatively measured using two different approaches. In the first approach, the reprogramming frequency (Rf) is determined by the ratio of GFP DsRed+ cells to total DsRed+ cells. […] In the second approach, the reprogramming efficacy is determined by the distribution of GFP fluorescence intensities of individual cells from the DsRed+ population (FIG. 4C). This analysis provides a measurement of the efficiency of Oct4-GFP re-activation in NSCs after successful fusion.
The protocol was optimized for PEG-induced cell fusion between ESCs and NSCs to achieve maximum efficiency and minimal toxicity. Equal numbers of ESCs and NSCs were mixed thoroughly and spun down in PBS. The pellet was loosened by gentle tapping and 50% PEG (500 μl for 1×10^7 cells) was added to the cells continuously over one minute while swirling the mixture in 37° C. water bath Next, 2 ml of ESC medium was layered on top of PEG-cell mixture and one-minute incubation in 37° C., followed by low-speed centrifugation at 1,800 rpm for 5 minutes. After removing the supernatant, the pellet was incubated with ESC medium for one minute, washed, resuspended and plated onto gelatin-coated dishes and grown in Dubelcco's Modified Eagle's Medium, 15% fetal bovine serum supplemented with mouse leukemia inhibitory factor (ESGRO), 0.1 mM nonessential amino acids, 0.1 mM β-mercaptoethanol, and 50 U/ml penicillin/50 μg/ml streptomycin (ESC medium). […] The following pharmacological inhibitors were applied in ESC-fusion experiments only during the first 48 hours after fusion. DMOG (5-10 μM; BioMol), Anacardic acid (5-10 μM; Calbiochem), Trichostatin A (TSA, 100 nM-1 μM; Sigma) and azidothymidine (AZT, 1-5 μM; Sigma).

[1] = 10 μM, 48-hour treatment, analyzed at day 4, vs DMSO

SMILES: COC(=O)CNC(=O)C(=O)OC [DMOG, dimethyloxalylglycine]
- Effects (on reprogramming) (5 μM, applied only during the first 48 hours after fusion): strong reprogramming deficit
- reprogramming efficacy [1]: significant decreases
- reprogramming frequency [1]: significant decreases
- ESC-induced Oct4 re-activation in NSCs (inhibitor treatment after fusion): considerably reduced; also recorded: attenuates
